Laboratory results published in paper PMC12663214, “Synthesis, structural elucidation, and molecular docking of diclofenac-derived hydrazone metal complexes with anti-inflammatory and anticancer potential” (Scientific Reports, 2025).
Values joined by “and” are separate entries in the source; they are usually repeats but may differ in a detail not shown here. Identical values can stand only once. Like-named read-outs stand apart in the source and are kept apart here. Each block holds one compound with its values, some of them ahead of it.

Tests used:
[1] = system: MCF-7 (breast cancer) cell line; details: cited from earlier work
[2] = system: HepG-2 (liver cancer) cell line; details: cited from earlier work
[3] = molecular target: T1, recombinant COX-2 (human) (Homo sapiens, UniProt P35354); test: COX-2 inhibition, ELISA kit (Cayman Chemical); type: biochemical; details: for COX-2 selectivity index (S.I.): ratio of COX-1 IC50 to COX-2 IC50; for IC50: human recombinant COX-2, ELISA
T1 construct: purchased Cayman Chemical 560131
T1 sequence (P35354 18-604): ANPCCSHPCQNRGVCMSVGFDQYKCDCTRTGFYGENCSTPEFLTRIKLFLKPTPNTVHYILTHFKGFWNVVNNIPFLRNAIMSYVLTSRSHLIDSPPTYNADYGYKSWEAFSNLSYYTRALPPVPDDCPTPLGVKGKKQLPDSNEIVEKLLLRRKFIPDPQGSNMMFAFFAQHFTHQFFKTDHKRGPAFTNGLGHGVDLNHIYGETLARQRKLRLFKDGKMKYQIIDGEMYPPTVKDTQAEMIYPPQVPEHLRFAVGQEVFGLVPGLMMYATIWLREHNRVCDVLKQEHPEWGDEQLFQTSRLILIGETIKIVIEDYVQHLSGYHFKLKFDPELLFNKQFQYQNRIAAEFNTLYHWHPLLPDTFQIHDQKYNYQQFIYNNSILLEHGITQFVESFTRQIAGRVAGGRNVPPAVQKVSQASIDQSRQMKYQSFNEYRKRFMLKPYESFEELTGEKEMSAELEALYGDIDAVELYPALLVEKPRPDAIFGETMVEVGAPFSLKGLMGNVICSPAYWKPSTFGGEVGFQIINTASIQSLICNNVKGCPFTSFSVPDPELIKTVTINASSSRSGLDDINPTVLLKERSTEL
From the text: (§1) These enzymes are crucial targets in the development of anti-inflammatory agents due to their roles in prostaglandin synthesis, with COX-1 associated with normal physiological functions and COX-2 predominantly involved in inflammation.

[4] = molecular target: T2, COX-1 (ovine) (Ovis aries, UniProt P05979); test: COX-1 inhibition, ELISA kit (Cayman Chemical); type: biochemical; details: ovine COX-1, ELISA
T2 construct: purchased Cayman Chemical 560131
T2 sequence (P05979 25-600): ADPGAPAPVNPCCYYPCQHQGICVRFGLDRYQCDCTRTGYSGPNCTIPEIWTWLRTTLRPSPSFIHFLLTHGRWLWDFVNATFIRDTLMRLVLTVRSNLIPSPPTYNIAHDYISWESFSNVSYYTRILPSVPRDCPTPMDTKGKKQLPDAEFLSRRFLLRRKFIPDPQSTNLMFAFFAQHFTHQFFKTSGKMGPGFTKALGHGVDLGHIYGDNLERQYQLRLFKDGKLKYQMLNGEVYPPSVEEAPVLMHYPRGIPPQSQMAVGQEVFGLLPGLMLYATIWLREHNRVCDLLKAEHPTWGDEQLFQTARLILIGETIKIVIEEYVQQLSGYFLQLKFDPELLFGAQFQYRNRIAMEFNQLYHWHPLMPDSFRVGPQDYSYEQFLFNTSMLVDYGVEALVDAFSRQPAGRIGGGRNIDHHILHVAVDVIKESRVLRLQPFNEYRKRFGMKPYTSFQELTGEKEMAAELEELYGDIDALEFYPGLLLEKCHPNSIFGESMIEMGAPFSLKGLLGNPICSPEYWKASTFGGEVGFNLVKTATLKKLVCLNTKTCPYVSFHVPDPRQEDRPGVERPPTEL
From the text: as §1

[5] = system: MCF-7 (breast cancer) cell line; test: MTT cytotoxicity assay, MCF-7; type: cell-based, homo sapiens, human; details: for IC50: MTT, MCF-7
Description: (§2) MCF-7 and HepG-2 cell lines (provided by the Cell Culture Department, VACSERA, Egypt) were seeded in each 96-well tissue culture plate well at a concentration of 1 × 10^5 cells/ml, adding 100 µl/well. Incubation at 37 °C followed for 24 h until a full monolayer was established. The growth medium was later aspirated, and the cell monolayer was rinsed twice using wash media. It was then subjected to a two-fold dilution in an RPMI medium containing 2% serum, which is regarded as a maintenance medium. Later, 0.1 ml of each dilution was added to individual wells. Three wells were reserved for use as controls and received only the maintenance medium. The plate was then incubated at 37 °C and further monitored accordingly. The marks of toxicity to be checked on the cells include disruption of the cell monolayer, cell rounding and shrinking, or the appearance of granules. MTT solution is prepared from BIO BASIC CANADA INC with a 5 mg/ml strength in PBS. To ensure the MTT and media are well mixed, add 20 µl of MTT solution to each well and shake the plate. The MTT will be metabolized by incubating the plate at 37 °C with 5% CO2 for one to five hr. If there is any residual substance, get rid of the rest by drying the plate on paper towels. Add DMSO (200 µl) to dissolve the formazan (MTT metabolic product) and then put the plate on the shaking table set at 150 rpm for 5 min to assure that the formazan is fully dissolved into the solvent. Measure the optical density at 560 nm and subtract the background signal at 620 nm. The optical density value reflects directly the number of cells[28]–[30]. MCF-7 (breast cancer) and HepG-2 (liver cancer) cell lines.
(§3) The antitumor effects of the newly synthesized HDN ligand and its metal complexes with Cu(II) and Gd(III) were tested against MCF-7 (breast cancer) and HepG-2 (liver cancer) cell lines using the MTT assay[28]–[30].. This method measures cell viability based on mitochondrial activity, clearly indicating each compound’s cytotoxic potential. The key findings from these tests are outlined in Tables 4, S8, and S9 and illustrated in Figures S21-S31.

[6] = system: HepG-2 (liver cancer) cell line; test: MTT cytotoxicity assay, HepG-2; type: cell-based, homo sapiens, human; details: for IC50: MTT, HepG-2
Description: as §2, §3

[7] = Solubility in organic solvents; type: physicochemical

Compound: O=c1[nH]cc(F)c(=O)[nH]1 [5-Fluorouracil]
IC50 ([1]; ref [55],[56]): 3.95 µM
IC50 ([2]; ref [55],[56]): 32.5 µM

COX-2 selectivity index (S.I.) [3]: 14.15
Compound: O.O=C(Cc1ccccc1Nc1c(Cl)cccc1Cl)NN=Cc1c([O-])ccc2ccccc12.[Ag+] [Ag(I)-HDN, [Ag(DN)(H2O)]]

Compound: N.N.[Cl][Pt][Cl] [Cisplatin]
IC50 ([1]; ref [57],[58]): 15.2 µM
IC50 ([2]; ref [57],[58]): 8.45 µM

IC50 [4]: 8.5 µM
IC50 [3]: 0.62 µM
COX-2 selectivity index (S.I.) [3]: 13.71
Compound: O=C(Cc1ccccc1Nc1c(Cl)cccc1Cl)NN=Cc1c([O-])ccc2ccccc12.O=C(Cc1ccccc1Nc1c(Cl)cccc1Cl)NN=Cc1c([O-])ccc2ccccc12.[Co+2] [Co(II)-HDN, [Co(DN)2]]

Compound: O=C(O)Cc1ccccc1Nc1c(Cl)cccc1Cl [Diclofenac sodium]
IC50 ([1]; ref [54],[64]): 1790 µM
IC50 ([2]; ref [54],[64]): 147 µM

IC50 [4]: 6 µM
IC50 [3]: 0.95 µM
COX-2 selectivity index (S.I.) [3]: 6.31
Compound: O.O.O.O.O=C(Cc1ccccc1Nc1c(Cl)cccc1Cl)NN=Cc1c(O)ccc2ccccc12.O=C(Cc1ccccc1Nc1c(Cl)cccc1Cl)NN=Cc1c(O)ccc2ccccc12.O=[N+]([O-])[O-].O=[N+]([O-])[O-].O=[N+]([O-])[O-].[Gd+3] [Gd(III)-HDN, [Gd(HDN)2(NO3)2]NO3.4H2O]
Inhibition % ([5]; MCF-7, 0.31 µM/ml): 18.33%
Inhibition % ([5]; MCF-7, 0.62 µM/ml): 50.83%
Inhibition % ([5]; MCF-7, 1.25 µM/ml): 70.06%
Inhibition % ([5]; MCF-7, 2.50 µM/ml): 75.34%
Inhibition % ([5]; MCF-7, 5.00 µM/ml): 96.71%
Inhibition % ([5]; MCF-7, 10.00 µM/ml): 96.86%
Inhibition % ([5]; MCF-7, 10.00 µM/ml, listed as Gd(III) complex): exceeding 95%
IC50 [5]: 0.8 µM
Inhibition % ([6]; HepG-2, 0.31 µM/ml): 0.45%
Inhibition % ([6]; HepG-2, 0.62 µM/ml): 0.40%
Inhibition % ([6]; HepG-2, 1.25 µM/ml): 7.98%
Inhibition % ([6]; HepG-2, 2.50 µM/ml): 53.05%
Inhibition % ([6]; HepG-2, 5.00 µM/ml): 81.14%
Inhibition % ([6]; HepG-2, 10.00 µM/ml): 95.27%
Inhibition % ([6]; HepG-2, 10.00 µM/ml, listed as Gd(III) complex): exceeding 95%
IC50 [6]: 2.47 µM

Compound: CC(C)Cc1ccc(C(C)C(=O)O)cc1 (centres unmarked) [Ibuprofen]
IC50 ([1]; ref [54]): 5060 µM

IC50 [4]: 10.5 µM
IC50 [3]: 0.06 µM
COX-2 selectivity index (S.I.) [3]: 174.5
solubility in acetone ([7]; organic solvent: acetone): slight solubility
solubility in DMSO and DMF ([7]; organic solvents: DMSO, DMF): dissolved well
solubility in EtOH and MeOH ([7]; organic solvents: EtOH, MeOH): didn’t dissolve
Compound: O=C(Cc1ccccc1Nc1c(Cl)cccc1Cl)N/N=C/c1c(O)ccc2ccccc12 [Ligand [HDN], (E)−2-(2-((2,6-dichlorophenyl)amino)phenyl)-N’-((2-hydroxynaphthalen-1-yl)methylene)acetohydrazide]
inhibition at 31.25 µg/mL ([5]; Homo sapiens, MCF7, MCF-7, 31.25 µg/ml): 7.98%
inhibition at 62.5 µg/mL ([5]; Homo sapiens, MCF7, MCF-7, 62.5 µg/ml): 52.5%
inhibition at 250 µg/mL ([5]; Homo sapiens, MCF7, MCF-7, 250 µg/ml): 89.2%
inhibition at 500 µg/mL ([5]; Homo sapiens, MCF7, MCF-7, 500 µg/ml): 97.3%
inhibition at 1000 µg/mL ([5]; Homo sapiens, MCF7, MCF-7, 1000 µg/ml): 97.5%
IC50 ([5]; Homo sapiens, MCF7): 178 µM and 82.6 µg/mL
inhibition at 31.25 µg/mL ([6]; Homo sapiens, HepG2, HepG-2, 31.25 µg/ml): 12.9%
inhibition at 62.5 µg/mL ([6]; Homo sapiens, HepG2, HepG-2, 62.5 µg/ml): 61.4%
inhibition at 250 µg/mL ([6]; Homo sapiens, HepG2, HepG-2, 250 µg/ml): 96.9%
inhibition at 500 µg/mL ([6]; Homo sapiens, HepG2, HepG-2, 500 µg/ml): 97.2%
inhibition at 1000 µg/mL ([6]; Homo sapiens, HepG2, HepG-2, 1000 µg/ml): 97%
IC50 ([6]; Homo sapiens, HepG2): 152 µM and 70.5 µg/mL

Compound: [Cu(DN)2]2.5H2O [Cu(II)-HDN]
Inhibition % ([5]; MCF-7, 0.31 µM/ml): 16.98%
Inhibition % ([5]; MCF-7, 0.62 µM/ml): 63.27%
Inhibition % ([5]; MCF-7, 1.25 µM/ml): 84.90%
Inhibition % ([5]; MCF-7, 2.50 µM/ml): 97.18%
Inhibition % ([5]; MCF-7, 5.00 µM/ml): 97.39%
Inhibition % ([5]; MCF-7, 10.00 µM/ml): 97.49%
Inhibition % ([5]; MCF-7, 10.00 µM/ml, listed as Cu(II) complex): exceeding 95%
IC50 [5]: 0.65 µM
times more potent than 5-fluorouracil ([5]; breast cancer cells (MCF-7), from IC50 values): approximately six
Inhibition % ([6]; HepG-2, 0.31 µM/ml): 2.96%
Inhibition % ([6]; HepG-2, 0.62 µM/ml): 35.16%
Inhibition % ([6]; HepG-2, 1.25 µM/ml): 61.65%
Inhibition % ([6]; HepG-2, 2.50 µM/ml): 85.53%
Inhibition % ([6]; HepG-2, 5.00 µM/ml): 97.32%
Inhibition % ([6]; HepG-2, 10.00 µM/ml): 97.38%
Inhibition % ([6]; HepG-2, 10.00 µM/ml, listed as Cu(II) complex): exceeding 95%
IC50 [6]: 1 µM
